In assay [1] the test system is CD8+ T cells of HLA-A02:01-positive human donors. Format: cell-based.
The test system of assay [2] is MHC (HLA-I and HLA-II alleles). Also on record: key: +: previously assayed and confirmed as HLA-A02:01 binders in ViPR. The note with it: cited from earlier work.
Another assay concerns peripheral CD8+ T cells. The arrangement: species or system human. To be noted: in vivo.
[3] abbreviates: PBMCs from three HLA-A02:01-positive human donors, pMHC multimer positive CD8+ T cells.

Like-named read-outs stand apart in the source and are kept apart here.

Chain of MHC (HLA-I and HLA-II alleles) (P61769 21-119): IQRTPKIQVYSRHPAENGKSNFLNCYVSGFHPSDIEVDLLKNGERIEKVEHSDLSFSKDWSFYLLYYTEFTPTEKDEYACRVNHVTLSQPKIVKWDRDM

Take FGDDTVIEV: the “No. Donors with pMHC specific T tells” value in assay [1] (setting [3]) worked out at 3.

As for FLFLTWICL, in assay [1] (setting [3]), the “No. Donors with pMHC specific T tells” value turned out to be 2. Take FLLPSLATV: the “No. Donors with pMHC specific T tells” value in assay [1] (setting [3]) is reported as 2. As for GLTVLPPLL, the “No. Donors with pMHC specific T tells” value in assay [1] (setting [3]) was 1. With ILLNKHIDA, in assay [2], the “Confirmed in VIPR” value is recorded as “+”. KLDDKDPNF: the “No. Donors with pMHC specific T tells” value in assay [1] stood at 2.

Turning to KLNDLCFTNV, the “No. Donors with pMHC specific T tells” value in assay [1] (setting [3]) was 2.

For the sequence LLLDRLNQL, the “Confirmed in VIPR” value in assay [2] is “+”. The “No. Donors with pMHC specific T tells” value in assay [1] (setting [3]) was determined as 1. Regarding NLNESLIDL, in assay [2], the “Confirmed in VIPR” value is reported as “+”. For QPTESIVRF, the “multimer+ of CD8+” value in the assay on peripheral CD8+ T cells amounted to 0.17.

QYIKWPWYI: the “multimer+ of CD8+” value with peripheral CD8+ T cells came to 1.27.

YLGTGPEAGL: in assay [1], the “No. Donors with pMHC specific T tells” value is on record as 2.

As for YLQPRTFLL, the “multimer+ of CD8+” value with peripheral CD8+ T cells is reported as 3.09.

The values above are taken from US20260207734A1 (priority 2021, published 2026).
